According to PubChem BioAssay (NCI):
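All cell lines were grown in 96-well plates and treated with compound for 48 hours. At the TGI there is no net growth.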

Assays:
Test in all cases: NCI-60 cell line screen, 48 h
[1] = test system: 786-0 renal
[2] = test system: A498 renal
[3] = test system: A549 NSCLC
[4] = test system: ACHN renal
[5] = test system: BT-549 breast
[6] = test system: CAKI-1 renal
[7] = test system: COLO 205 colon
[8] = test system: DU-145 prostate
[9] = test system: EKVX NSCLC
[10] = test system: HCT-116 colon
[11] = test system: HCT-15 colon
[12] = test system: HL-60(TB) leukemia
[13] = test system: HOP-62 NSCLC
[14] = test system: HOP-92 NSCLC
[15] = test system: HS 578T breast
[16] = test system: HT29 colon
[17] = test system: IGROV1 ovarian
[18] = test system: K-562 leukemia
[19] = test system: KM12 colon
[20] = test system: LOX IMVI melanoma
[21] = test system: M14 melanoma
[22] = test system: MCF7 breast
[23] = test system: MDA-MB-231 breast
[24] = test system: MDA-MB-435
[25] = test system: MDA-N
[26] = test system: MOLT-4 leukemia
[27] = test system: NCI-H226 lung
[28] = test system: NCI-H23 lung
[29] = test system: NCI-H460 lung
[30] = test system: NCI-H522 lung
[31] = test system: NCI/ADR-RES ovarian
[32] = test system: OVCAR-3 ovarian
[33] = test system: OVCAR-4 ovarian
[34] = test system: OVCAR-5 ovarian
[35] = test system: OVCAR-8 ovarian
[36] = test system: PC-3 prostate
[37] = test system: RPMI-8226 leukemia
[38] = test system: RXF 393 renal
[39] = test system: SF-268 CNS
[40] = test system: SF-295 CNS
[41] = test system: SF-539 CNS
[42] = test system: SK-MEL-28 melanoma
[43] = test system: SK-MEL-5 melanoma
[44] = test system: SK-OV-3 ovarian
[45] = test system: SN12C renal
[46] = test system: SNB-19 CNS
[47] = test system: SNB-75 CNS
[48] = test system: SR leukemia
[49] = test system: SW-620 colon
[50] = test system: T-47D breast
[51] = test system: TK-10 renal
[52] = test system: U251 CNS
[53] = test system: UACC-62 melanoma
[54] = test system: UO-31 renal
[55] = test system: MALME-3M melanoma
[56] = test system: SK-MEL-2 melanoma
[57] = test system: UACC-257 melanoma
[58] = test system: CCRF-CEM leukemia
[59] = test system: HCC-2998 colon

In the case of `COC(=O)C1(NC(=O)C(CC(=O)OCc2ccccc2)NC(=O)OCc2ccccc2)CCCCCCC1` (centres undefined), the TGI [1] is reported as > 100 µM, the TGI [2] is reported as 67.7 µM and the TGI [3] is reported as > 100 µM. For the same molecule, the TGI [4] was > 100 µM, the TGI [5] was > 100 µM and the TGI [6] was > 100 µM. The TGI [7] was 82.7 µM, the TGI [8] was > 100 µM and the TGI [9] was > 100 µM. For the same molecule, the TGI [10] was > 100 µM, the TGI [11] was > 100 µM and the TGI [12] was 51.9 µM. For the same molecule, the TGI [13] was > 100 µM, the TGI [14] was > 100 µM and the TGI [15] was > 100 µM. The TGI [16] was > 100 µM, the TGI [17] was > 100 µM and the TGI [18] was > 100 µM. For the same molecule, the TGI [19] was > 100 µM, the TGI [20] was > 100 µM and the TGI [21] was > 100 µM. The TGI [22] was > 100 µM, the TGI [23] was > 100 µM and the TGI [24] was > 100 µM. The TGI [25] was > 100 µM, the TGI [26] was > 100 µM and the TGI [27] was 90.9 µM. For the same molecule, the TGI [28] was > 100 µM, the TGI [29] was > 100 µM and the TGI [30] was > 100 µM. For the same molecule, the TGI [31] was > 100 µM, the TGI [32] was > 100 µM and the TGI [33] was > 100 µM. For the same molecule, the TGI [34] was > 100 µM, the TGI [35] was > 100 µM and the TGI [36] was > 100 µM. The TGI [37] was 39.2 µM, the TGI [38] was > 100 µM and the TGI [39] was > 100 µM. The TGI [40] was > 100 µM, the TGI [41] was > 100 µM and the TGI [42] was > 100 µM. The TGI [43] was 29.4 µM, the TGI [44] was > 100 µM and the TGI [45] was > 100 µM. The TGI [46] was > 100 µM, the TGI [47] was > 100 µM and the TGI [48] was > 100 µM. For the same molecule, the TGI [49] was > 100 µM, the TGI [50] was 94.2 µM and the TGI [51] was > 100 µM. The TGI [52] was > 100 µM, the TGI [53] was 63.2 µM and the TGI [54] was > 100 µM.
`C=CCSc1nc2c(N)ncnc2n1C1OC(CO)C(O)C1O` (centres undefined) was tested, and the TGI [1] was > 100 µM, the TGI [2] was > 100 µM and the TGI [3] was > 100 µM. For the same molecule, the TGI [4] was > 100 µM, the TGI [5] was > 100 µM and the TGI [6] was > 100 µM. For the same molecule, the TGI [7] was > 100 µM, the TGI [8] was > 100 µM and the TGI [9] was > 100 µM. The TGI [10] was > 100 µM, the TGI [11] was > 100 µM and the TGI [12] was > 100 µM. For the same molecule, the TGI [13] was > 100 µM, the TGI [14] was > 100 µM and the TGI [15] was > 100 µM. For the same molecule, the TGI [16] was > 100 µM, the TGI [17] was > 100 µM and the TGI [18] was > 100 µM. For the same molecule, the TGI [19] was > 100 µM, the TGI [20] was > 100 µM and the TGI [21] was > 100 µM. For the same molecule, the TGI [55] was > 100 µM, the TGI [22] was > 100 µM and the TGI [23] was > 100 µM. For the same molecule, the TGI [24] was > 100 µM, the TGI [25] was > 100 µM and the TGI [26] was > 100 µM. For the same molecule, the TGI [27] was > 100 µM, the TGI [28] was > 100 µM and the TGI [29] was > 100 µM. The TGI [30] was > 100 µM, the TGI [31] was > 100 µM and the TGI [32] was > 100 µM. The TGI [33] was > 100 µM, the TGI [34] was > 100 µM and the TGI [35] was > 100 µM. The TGI [36] was > 100 µM, the TGI [37] was > 100 µM and the TGI [38] was > 100 µM. For the same molecule, the TGI [39] was > 100 µM, the TGI [40] was > 100 µM and the TGI [41] was > 100 µM. The TGI [56] was > 100 µM, the TGI [42] was > 100 µM and the TGI [43] was > 100 µM. For the same molecule, the TGI [44] was > 100 µM, the TGI [45] was > 100 µM and the TGI [46] was > 100 µM. For the same molecule, the TGI [47] was > 100 µM, the TGI [48] was > 100 µM and the TGI [49] was > 100 µM. For the same molecule, the TGI [50] was > 100 µM, the TGI [51] was > 100 µM and the TGI [52] was > 100 µM. For the same molecule, the TGI [57] was > 100 µM, the TGI [53] was > 100 µM and the TGI [54] was > 100 µM.
With `C[n+]1cn(C2=C([O-])c3ccccc3C(=O)/C2=N\S(=O)(=O)c2ccccc2)c2ccccc21` the TGI [1] was > 100 µM, the TGI [3] was > 100 µM and the TGI [4] was > 100 µM. The TGI [5] was 86.1 µM, the TGI [6] was > 100 µM and the TGI [58] was > 100 µM. For the same molecule, the TGI [7] was 26.1 µM, the TGI [8] was > 100 µM and the TGI [9] was > 100 µM. The TGI [59] was 46.7 µM, the TGI [10] was > 100 µM and the TGI [11] was > 100 µM. The TGI [12] was 86.1 µM, the TGI [13] was > 100 µM and the TGI [14] was > 100 µM. For the same molecule, the TGI [15] was > 100 µM, the TGI [16] was > 100 µM and the TGI [17] was 87.3 µM. The TGI [18] was > 100 µM, the TGI [19] was > 100 µM and the TGI [20] was 76.4 µM. For the same molecule, the TGI [21] was 48.3 µM, the TGI [55] was 5.88 µM and the TGI [22] was > 100 µM. The TGI [23] was > 100 µM, the TGI [24] was 6.34 µM and the TGI [25] was 26.6 µM. For the same molecule, the TGI [26] was > 100 µM, the TGI [27] was > 100 µM and the TGI [28] was 34.7 µM. The TGI [29] was 84.5 µM, the TGI [30] was 26.8 µM and the TGI [31] was > 100 µM. For the same molecule, the TGI [32] was 44.9 µM, the TGI [33] was 37.8 µM and the TGI [34] was > 100 µM. For the same molecule, the TGI [35] was 77.4 µM, the TGI [36] was > 100 µM and the TGI [37] was > 100 µM. The TGI [38] was 85.1 µM, the TGI [39] was > 100 µM and the TGI [40] was > 100 µM. The TGI [41] was > 100 µM, the TGI [56] was 44.1 µM and the TGI [42] was > 100 µM. For the same molecule, the TGI [43] was > 100 µM, the TGI [44] was > 100 µM and the TGI [45] was > 100 µM. The TGI [46] was 78.5 µM, the TGI [47] was > 100 µM and the TGI [48] was > 100 µM. For the same molecule, the TGI [49] was > 100 µM, the TGI [50] was > 100 µM and the TGI [51] was 70.5 µM. The TGI [52] was 50.7 µM, the TGI [57] was 76.6 µM and the TGI [53] was 45.6 µM. The TGI [54] was > 100 µM.
